What was measured:
[1] = Half life of the compound at pH 7.4 at 37 degC at 3.4 x 10' -3 M; assay type: physicochemical
[2] = Hydrolysis of the compound at pH 7.4 at 37 degC assessed as first-order rate coefficient at 3.4 x 10' -3 M; assay type: physicochemical; details: buffer, pH 7.4, 3400 µM

O=[N+]([O-])c1cc([N+](=O)[O-])c(NCCCSCCCl)c(S(=O)(=O)O)c1
half-life at 3400 µM [1]: 5.83 min
K [2]: 2 ×10⁻³ /s

Source: ChEMBL document CHEMBL3272065 (J Med Chem, 1977)
